Test results taken from PubChem BioAssay (NCI).
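Compound exposure: 48 hours, 5 concentrations, 96-well plates. TGI: total growth inhibition.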

Each molecule was assayed on NCI-H226 lung (assay: NCI tumour cell line growth inhibition, 48 h).

**Q.** `COC(=O)C1CC2(c3ccccc3)C(=O)c3ccccc3N2O1` (centres undefined) was tested. Which TGI did it give?
**A.** > 100 µM

**Q.** For `COc1cc2c(/C=C3/C(=O)Nc4ccccc43)c(Cl)[nH]c2cc1C`, which TGI is on record?
**A.** > 100 µM

**Q.** Which TGI does the source give for `O=C(O)C(CO)NC(=O)n1c2ccccc2c2ccccc21` (centres undefined) here?
**A.** > 100 µM

**Q.** Which TGI does the source give for `Brc1ccc2c(-c3csc(-c4c[nH]c5ccc(Br)cc45)n3)c[nH]c2c1` here?
**A.** 32.1 µM

**Q.** For `Cc1c2ncccc2cc2oc3ccccc3c(=O)c12`, which TGI is on record?
**A.** > 100 µM

**Q.** For `CC1(C)OCC2OC3([C@H]4OC(C)(C)O[C@@H]4CO)OC(C)(C)OC3C2O1` (some centres undefined), which TGI is on record?
**A.** > 100 µM

**Q.** Which TGI does the source give for `O=C(Nc1cccc(O)c1)C(=O)C(C(=O)c1ccccc1F)C1OC(=O)c2ccccc21` (centres undefined) here?
**A.** 49.1 µM

**Q.** For `Clc1ccc(OCc2nnc(CCCCCCCCc3nnc(COc4ccc(Cl)cc4)n3Nc3ccccc3)n2Nc2ccccc2)cc1`, which TGI is on record?
**A.** > 100 µM

These molecules were tested on HCC-2998 colon (assay: NCI tumour cell line growth inhibition, 48 h).

**Q.** For `COc1ccc2c(c1)CN1C(=N2)CSC1c1ccccc1Cl` (centres undefined), which TGI is on record?
**A.** 29.8 µM

**Q.** `CC1(CNCc2ccccc2)CC(CCc2ccccc2)N(C(=O)c2ccc([N+](=O)[O-])cc2)C1Cc1ccc(O)cc1` (centres undefined) was tested. Which TGI did it give?
**A.** 27.1 µM

**Q.** With `Cc1cc2[nH]c3c(C#N)c4c(c(=O)n3c2cc1C)CCCC4` as the molecule, how does the TGI read?
**A.** > 100 µM

**Q.** How did the TGI turn out when `O=C1CSC(c2cccs2)N1c1nc2cc3sc(N4C(=O)CSC4c4cccs4)nc3cc2s1` (centres undefined) was run?
**A.** > 50 µM

**Q.** With `Cc1cn(C(C)OCCN2C(=O)c3ccccc3C2=O)c(=O)[nH]c1=O` (centres undefined) as the molecule, how does the TGI read?
**A.** > 100 µM

**Q.** `CCOC(=O)C1=C(OC(OCC)C(CC)[Se]c2ccccc2)CCCC1` (centres undefined) was tested. Which TGI did it give?
**A.** > 100 µM

**Q.** Which TGI does the source give for `NC(N)=NS(=O)(=O)c1ccc(NC(=O)c2ccc3nc4ccccc4c(Nc4ccc(S(=O)(=O)N=C(N)N)cc4)c3c2)cc1` here?
**A.** > 100 µM

**Q.** For `COc1ccc2cc(NC(=O)N/N=C\c3ccc(Cl)cc3)ccc2c1`, which TGI is on record?
**A.** > 100 µM

**Q.** For `Brc1cc2nn(-c3ccccc3)nc2c2nonc12`, which TGI is on record?
**A.** > 100 µM

**Q.** For `CCOC(=O)C(NC(=O)CC(C)C)(N1CCN(c2cc3c(cc2F)c(=O)c(C(=O)O)cn3C2CC2)CC1)C(F)(F)F` (centres undefined), which TGI is on record?
**A.** 28.4 µM

**Q.** `Cc1cn([C@@H]2C[C@H]2CO)c(=O)[nH]c1=O` was tested. Which TGI did it give?
**A.** > 100 µM

**Q.** With `c1ccc(/C(=N/Nc2ccccn2)c2ncccn2)cc1` as the molecule, how does the TGI read?
**A.** > 100 µM

**Q.** Which TGI does the source give for `O=C1C=CC(=O)c2c(O)c(NCCc3ccc(O)cc3)c(Cl)c(O)c21` here?
**A.** > 10 µM

**Q.** `COc1cc(I)c2c3c1OC1C34CCN(C)C(C2)C4=CC(I)C1(OC)OC` (centres undefined) was tested. Which TGI did it give?
**A.** 28.9 µM

**Q.** Which TGI does the source give for `NC(=O)C(=CNC(=S)c1ccncc1)C(N)=O` here?
**A.** > 100 µM

**Q.** How did the TGI turn out when `O=c1c(-c2ccc(Cl)cc2)nnc2n(Cc3ccccc3)c3ccccc3n12` was run?
**A.** > 100 µM

**Q.** How did the TGI turn out when `Nc1c(C(=O)c2ccc(Cl)cc2)[nH]c(NCc2ccccc2)c1C(=S)Nc1ccccc1` was run?
**A.** 1.98 µM

**Q.** How did the TGI turn out when `CCC(C)C(=O)OC1CC2(C)C(c3ccoc3)OC(=O)CC23OC2(C)OC34C(OC(=O)C(C)C)C3(O)C(OC(=O)C5(C)OC5C)C5(C)CC3(O)C(C)(C5CC(=O)OC)C14O2` (centres undefined) was run?
**A.** > 100 µM

**Q.** For `c1ccc2c3c(c(N4CCOCC4)nc2c1)CCCC3`, which TGI is on record?
**A.** > 100 µM

**Q.** For `O=C(Nc1ccccc1C(=O)NCCCO)/C(=C/c1ccccc1O)NC(=O)c1ccccc1`, which TGI is on record?
**A.** > 100 µM

**Q.** For `FC(F)(F)c1ccc2nc3n(c2c1)C(c1c(Cl)cccc1Cl)SC3` (centres undefined), which TGI is on record?
**A.** 35 µM

**Q.** Which TGI does the source give for `CCC(=O)Oc1c2ccsc2c(OC(=O)CC)c2ccsc12` here?
**A.** 3.49 µM

**Q.** How did the TGI turn out when `NC(=O)c1cc2ccccc2o/c1=N/O` was run?
**A.** > 100 µM

**Q.** Which TGI does the source give for `COC(=O)C1CC2(c3ccccc3)C(=O)c3ccccc3N2O1` (centres undefined) here?
**A.** > 100 µM

**Q.** With `COc1cc2c(/C=C3/C(=O)Nc4ccccc43)c(Cl)[nH]c2cc1C` as the molecule, how does the TGI read?
**A.** 0.982 µM

**Q.** Which TGI does the source give for `O=C(O)C(CO)NC(=O)n1c2ccccc2c2ccccc21` (centres undefined) here?
**A.** > 100 µM

**Q.** With `Brc1ccc2c(-c3csc(-c4c[nH]c5ccc(Br)cc45)n3)c[nH]c2c1` as the molecule, how does the TGI read?
**A.** 5.51 µM

**Q.** How did the TGI turn out when `Cc1c2ncccc2cc2oc3ccccc3c(=O)c12` was run?
**A.** > 100 µM

**Q.** How did the TGI turn out when `CC1(C)OCC2OC3([C@H]4OC(C)(C)O[C@@H]4CO)OC(C)(C)OC3C2O1` (some centres undefined) was run?
**A.** > 100 µM

**Q.** How did the TGI turn out when `O=C(Nc1cccc(O)c1)C(=O)C(C(=O)c1ccccc1F)C1OC(=O)c2ccccc21` (centres undefined) was run?
**A.** 39.4 µM

**Q.** `Clc1ccc(OCc2nnc(CCCCCCCCc3nnc(COc4ccc(Cl)cc4)n3Nc3ccccc3)n2Nc2ccccc2)cc1` was tested. Which TGI did it give?
**A.** > 68.7 µM
